Like-named read-outs stand apart in the source and are kept apart here.
Assays:
runx1/cmyb+ AGM HSCs = settings: for Effect on HSC expression (# embryos altered/# embryos scored): runx1/cmyb+ HSCs, zebrafish embryos
Experimental: A chemical genetic screen was conducted to identify novel pathways that modulate definitive HSC formation during zebrafish embryogenesis. FIG. 1. Genes such as runx1 and cmyb, required for HSC development during mammalian hematopoiesis, are expressed in the ventral wall of the dorsal aorta in a region analogous to the mammalian AGM at thirty-six hours post-fertilization (hpf). […] Wild-type embryos were incubated with individual compounds from the three-somite stage until thirty-six hpf. Probes for runx1 and cmyb were combined and utilized to detect HSCs by in situ hybridization.
Wild-type age-matched embryos were arrayed into 48-well plates (˜5 embryos/well) of individual test compounds and exposed from 3-somites until 36 hpf. […] In situ hybridization for runx1 and cmyb was performed to assess HSCs. Compounds were retested at 10 μM, 20 μM, and 50 μM. Stem cell specificity was assessed using flk1 at 36 hpf. PGE2, PGI2, dmPGE2 and all cox inhibitors (Sigma) were used at 10 μM to 20 μM.
Qualitative scoring (# embryos with altered HSCs/# scored) of runx1/cmyb was conducted using the following criteria: Normal/unchanged=continuous line of runx1/cmyb+ endothelial cells and occasional hematopoietic clusters. Decreased/absent=reduction in runx1/cmyb+ cells, including the presence of large gaps in the line of HSCs, isolated positive cells, or absence of expression. Increased/excess=enhancement in runx1/cmyb^+ cells, including many HSC clusters, a thickened line of HSCs, or ectopic expression.

vasculature (flk1) = settings: zebrafish embryos, 36 hpf
Experimental: Wild-type age-matched embryos were arrayed into 48-well plates (˜5 embryos/well) of individual test compounds and exposed from 3-somites until 36 hpf. Three compound libraries were utilized: NINDS Custom Collection (1040), SpecPlus Collection (960) and BIOMOL ICCB Known Bioactives (480). […] In situ hybridization for runx1 and cmyb was performed to assess HSCs. Compounds were retested at 10 μM, 20 μM, and 50 μM. Stem cell specificity was assessed using flk1 at 36 hpf. PGE2, PGI2, dmPGE2 and all cox inhibitors (Sigma) were used at 10 μM to 20 μM.

[1] = system: CFU-S from murine bone marrow cells; test: Murine colony-forming units-spleen (CFU-S); assay type: in vivo, mouse; settings: CFUS12, WBM treated ex vivo
Experimental: Two independent BM samples were treated (n=5/treatment×2 replicates) for each variable. Recipient mice were lethally irradiated with a split dose of 10 Gy. 6×10^4 unfractionated dmPGE2 or control-treated BM cells were injected retro-orbitally into irradiated recipient mice. Spleens were dissected on day eight or twelve, weighed and fixed with Bouin's solution; hematopoietic colonies per spleen were counted. 1×10^5 cells/recipient were transplanted after treatment with the cox inhibitors. FACS sorted ckit^+sca1^+lineage^− BM cells were treated as above and transplanted at a dose of either 100 cells/recipient or 300 cells/recipient.

[2] = system: peripheral blood and bone marrow WBC; test: 5-Fluorouracil bone marrow injury; assay type: in vivo, mouse; settings: in vivo exposure, IP, 1 mg/kg
Experimental: Mice were treated with 5-FU (150 mg/kg) as described. Venezia et al., 2004. […] Peripheral blood was obtained on day seven and day fourteen, quantified and subjected to multilineage FACS analysis using antibodies (eBioscience) to B220/IgM (B-lymphoid), CD4/8 (T-lymphoid), Mac1/Gr1 (myeloid), Ter119/CD71 (erythroid) and ckit/sca1 (stem/progenitor). Mice were sacrificed on day 16, and bone marrow was isolated, quantified and analyzed by FACS.

[3] = system: kidney marrow (KM) hematopoietic lineages; test: Kidney marrow irradiation recovery assay in adult zebrafish; settings: 10 μM, irradiated adult zebrafish
Text: Wild-type fish were sublethally irradiated, exposed to dmPGE2, and evaluated for kinetics of KM recovery by FACS 11 (FIG. 4A).
Adult zebrafish were exposed to 23 Gy of γ-irradiation. […] Whole KM isolated on days 0, 2, 4, 7, 10, 14 was subjected to FSC/SSC FACS analysis to identify hematopoietic lineages (n=5/treatment×3 replicates).

[4] = exposure from three somites to 36 hpf, runx1/cmyb staining

| Structure (SMILES) | effect on AGM HSCs in zebrafish embryos (in words) (runx1/cmyb+ AGM HSCs; [4]) | further results |
| --- | --- | --- |
| CCCCC[C@H](O)/C=C/[C@H]1[C@H](O)CC(=O)[C@@H]1C/C=C/CCCC(=O)O (relative stereo) [5-trans PGE2] | – | toxicity in zebrafish embryo screen (runx1/cmyb+ AGM HSCs; Table 4): toxic |
| CCCCC[C@H](O)/C=C/C=C\CCCCCCCC(=O)O [13(S)-HODE] | – | Effect on HSC expression (# embryos altered/# embryos scored) (runx1/cmyb+ AGM HSCs; Table 1, 36 hpf): Increase (15/25) |
| CC(=O)Oc1ccccc1C(=O)O [Aspirin] | reduced stem cells in the aorta | – |
| CC(C)NCC(O)COc1ccc(CC(N)=O)cc1 (stereo not drawn) [Atenolol] | heightened production of AGM stem cells | – |
| O=C1Nc2cc(Br)ccc2/C1=C1/Nc2ccccc2/C1=N\O [BIO] | HSC enhancers | – |
| Cc1ccc(-c2cc(C(F)(F)F)nn2-c2ccc(S(N)(=O)=O)cc2)cc1 [Celecoxib] | – | decreased runx1/cmyb+ HSCs (# embryos altered/# scored) (runx1/cmyb+ AGM HSCs; 20 μM, 36 hpf): 26/31 |
| CCCCCC1OC1C/C=C\C/C=C\C/C=C\CCCC(=O)O (stereo not drawn) [Epoxyeicosatrienoic Acid] | – | Effect on HSC expression (# embryos altered/# embryos scored) (runx1/cmyb+ AGM HSCs; Table 1, 36 hpf): Increase (17/25) |
| O=C(O)CCC(=O)c1ccc(-c2ccccc2)cc1 [Fenbufen] | decreased HSCs | Effect on HSC expression (# embryos altered/# embryos scored) (runx1/cmyb+ AGM HSCs; Table 2, 36 hpf): Decrease (20/26) |
| O=S(=O)(NCCNC/C=C/c1ccc(Br)cc1)c1cccc2cnccc12 [H89] | inhibit HCS | – |
| CC(C)Cc1ccc(C(C)C(=O)O)cc1 (stereo not drawn) [Ibuprofen] | reduced stem cells in the aorta | – |
| CCCCCCOC(=O)[C@]1(O)C[C@@H]2O[C@@]1(C)n1c3ccccc3c3c4c(c5c6ccccc6n2c5c31)C(=O)NC4 [KT5720] | inhibit HCS | – |
| O=C1Cc2c([nH]c3ccc(Br)cc23)-c2ccccc2N1 [Kenpaullone] | inhibit HCSs | – |
| CCCCC/C=C\C/C=C\CCCCCCCC(=O)O [Linoleic Acid] | upregulated HSC formation | Effect on HSC expression (# embryos altered/# embryos scored) (runx1/cmyb+ AGM HSCs; Table 1, 36 hpf): Increase (22/30); effect on vasculature / flk1 staining (in words) (vasculature (flk1)): remained relatively unchanged |
| CCCc1c(OCCCCc2nnn[nH]2)ccc(C(C)=O)c1O [Ly-171883] | – | Effect on HSC expression (# embryos altered/# embryos scored) (runx1/cmyb+ AGM HSCs; Table 1, 36 hpf): Increase (17/26) |
| CCCCCCCC/C=C\C/C=C\C/C=C\CCCC(=O)O [Mead Acid] | upregulated HSC formation | Effect on HSC expression (# embryos altered/# embryos scored) (runx1/cmyb+ AGM HSCs; Table 1, 36 hpf): Increase (24/32) |
| CS(=O)(=O)Nc1ccc([N+](=O)[O-])cc1OC1CCCCC1 [NS398] | reduced stem cells in the aorta | decreased runx1/cmyb+ HSCs (# embryos altered/# scored) (runx1/cmyb+ AGM HSCs; 20 μM, 36 hpf): 35/44; CFUS activity under selective cox inhibition [1]: significantly alter CFUS activity; peripheral blood (day 14) and bone marrow (day 16) WBC counts after 5-FU injury [2]: significantly inhibited WBC recovery; survival of irradiated fish to day fourteen [3]: excessive death |
| COc1ccc2cc([C@H](C)C(=O)O)ccc2c1 [Naproxen] | reduced stem cells in the aorta | – |
| COc1cccc(-c2cc(=O)c3ccccc3o2)c1N [PD9805] | inhibit HCS | – |
| CCCCC[C@H](O)/C=C/[C@@H]1[C@@H](C/C=C\CCCC(=O)O)[C@@H](O)C[C@H]1O [PGF2] | no effect | – |
| CCCCC[C@H](O)/C=C/[C@@H]1[C@H]2C/C(=C/CCCC(=O)O)O[C@H]2C[C@H]1O [PGI2] | increase moderately | increased runx1/cmyb expression (# embryos altered/# scored) (runx1/cmyb+ AGM HSCs; 20 μM, 36 hpf): 28/47 |
| CCCCC[C@H](O)/C=C/[C@H]1C(=O)C=C[C@@H]1C/C=C\CCCC(=O)O [Prosteglandin J2] | – | Effect on HSC expression (# embryos altered/# embryos scored) (runx1/cmyb+ AGM HSCs; Table 2, 36 hpf): Decrease (12/22) |
| C[C@]12CC[C@H]3[C@@H](CC[C@]4(O)C[C@@H](O)CC[C@]34C=O)[C@@]1(O)CC[C@@H]2C1=CC(=O)OC1 [Strophanthidin] | increases AGM stem cells | – |
| CC1=C(CC(=O)O)c2cc(F)ccc2/C1=C\c1ccc([S+](C)[O-])cc1 (stereo not drawn) [Sulindac] | – | Effect on HSC expression (# embryos altered/# embryos scored) (runx1/cmyb+ AGM HSCs; Table 2, 36 hpf): Decrease (18/31) |
| CCCCC1(COC(=O)CCC(=O)O)C(=O)N(c2ccccc2)N(c2ccccc2)C1=O [Suxibuzone] | – | Effect on HSC expression (# embryos altered/# embryos scored) (runx1/cmyb+ AGM HSCs; Table 2, 36 hpf): Decrease (16/30) |
| N#CC(=C(/N)Sc1ccccc1N)/C(C#N)=C(\N)Sc1ccccc1N [U0126] | – | effect on AGM HSCs in zebrafish embryos (in words) (runx1/cmyb+ AGM HSCs; zebrafish, in vivo): inhibit HCS |
| CCCC(CCC)C(=O)O [Valproic Acid] | inhibit HCSs | – |
| [Cl-].[Li+] [lithium chloride] | HSC enhancers | – |

Reference: patent publication US10272110B2, “Methods for promoting HSC engraftment” (CHILDREN'S MEDICAL CENTER CORPORATION, priority 2006, dated 2019)
